Data published in patent US9670261B2 (Sanofi, priority 2012, dated 2017).
*1 amine or outer side, *2 acyl side, *3 side chain or, on linkers, in order; H or OH if unused. Where a SMILES comes first, the peptide text is derived from it. Side-chain parts run from the residue outwards. [ ]: non-standard residue; d: D form. The star is where a group is joined. γGlu = O=C(O)[C@H](CCC(=O)[*:2])N[*:1]; Palmitoyl = CCCCCCCCCCCCCCCC(=O)*; Aib = CC(C)(N)C(=O)O

Legend:
[1] = test system: female leptin-receptor deficient diabetic db/db mice; test: Blood glucose and HbA1c in leptin-receptor deficient diabetic db/db mice (method 3); type: in vivo
Summary of the method: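 Female db/db mice (9–10 weeks at arrival) dosed at 5 mL/kg for 4 weeks with free food and water. Tail blood without anaesthesia: glucose by hexokinase and HbA1c measured before and at end of treatment, plus a 24-h glucose profile; repeated-measures two-way ANOVA with Dunnett's versus vehicle db/db, p<0.05.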

[2] = test system: female diet-induced obese (DIO) C57BL/6NCrl mice; test: Blood glucose and body weight in DIO mice, 18 weeks on high-fat diet (method 1); type: in vivo; settings: for decrease of body weight, relative change from baseline: 4 weeks; for Bodyfat change / Overall weight change: 4-week treatment, mean ± SEM
Description: Female C57BL/6NCrl mice were housed in groups in a specific pathogen-free barrier facility on a 12 h light/dark cycle with free access to water and high-fat diet. After 18 weeks on high-fat diet, mice were stratified to treatment groups (n=8), so that each group had similar mean body weight. An aged-matched group with ad libitum access to standard chow was included as standard control group.
Before the experiment, mice were subcutaneously (s.c.) injected with vehicle solution and weighed for 3 days to acclimate them to the procedures.
The volume of administration was 5 mL/kg. The animals had access to water and their corresponding diet during the experiment, food consumption was determined at all time points of blood sampling. Blood glucose levels were measured at t=0.5 h, t=1 h, t=2 h, t=4 h, t=6 h, t=8 h, and t=24 h (method: d-glucose hexokinase, hemolysate, AU640 Beckman Coulter). Blood sampling was performed by tail incision without anaesthesia.
Body weight was recorded daily. On days 6 and 28, total fat mass was measured by nuclear magnetic resonance (NMR) using a Bruker minispec (Ettlingen, Germany).
Statistical analyses were performed with Everstat 6.0 by repeated measures two-way ANOVA and Dunnett's post-hoc analyses (glucose profile) and 1-way-ANOVA, followed by Dunnett's post-hoc test (body weight, body fat). Differences versus vehicle-treated DIO control mice were considered statistically significant at the p<0.05 level.
Diet-induced obese female C57BL/6NCrl mice were administered daily in the afternoon, at the end of the light phase (12 h lights on) with 10, 30 and 100 μg/kg of SEQ ID NO: 9 or phosphate buffered solution (vehicle control on standard or high-fat diet) subcutaneously. On day 6 of treatment and at predefined time points, more blood samples were taken to measure blood glucose and generate the blood glucose profile over 24 h.
Female obese C57BL/6NCrl mice were treated for 4 weeks once daily subcutaneously in the afternoon, at the end of the light phase (12 h lights on) with 10, 30 or 100 μg/kg SEQ ID NO: 9 or vehicle. Body weight was recorded daily, and body fat content was determined before the start of treatment and after 4 weeks of treatment.

CCCCCCCCCCCCCCCC(=O)N[C@@H](CCC(=O)NCCCC[C@H](NC(=O)[C@H](CCC(N)=O)NC(=O)[C@@H](NC(=O)[C@H](CO)NC(=O)[C@H](CC(C)C)NC(=O)[C@H](CC(=O)O)NC(=O)[C@H](CO)NC(=O)[C@@H](NC(=O)[C@H](Cc1ccccc1)NC(=O)[C@@H](NC(=O)CNC(=O)[C@H](CCC(=O)O)NC(=O)C(C)(C)NC(=O)[C@@H](N)Cc1ccc(O)cc1)[C@@H](C)O)[C@@H](C)O)[C@@H](C)CC)C(=O)N[C@@H](CCC(=O)O)C(=O)N[C@@H](CCCCN)C(=O)N[C@@H](CCCNC(=N)N)C(=O)N[C@@H](C)C(=O)N[C@@H](C)C(=O)NC(C)(C)C(=O)N[C@@H](CCC(=O)O)C(=O)N[C@@H](Cc1ccccc1)C(=O)N[C@H](C(=O)N[C@@H](CCC(=O)O)C(=O)N[C@@H](Cc1c[nH]c2ccccc12)C(=O)N[C@@H](CC(C)C)C(=O)N[C@@H](CCCCN)C(=O)N[C@@H](CC(N)=O)C(=O)N[C@H](C(=O)NCC(=O)N1CCC[C@H]1C(=O)N[C@@H](CO)C(=O)N[C@@H](CO)C(=O)NCC(=O)N[C@@H](C)C(=O)N1CCC[C@H]1C(=O)N1CCC[C@H]1C(=O)N1CCC[C@H]1C(=O)N[C@@H](CO)C(N)=O)[C@@H](C)O)[C@@H](C)CC)C(=O)O [SEQ ID NO: 9, Y-Aib-E-G-T-F-T-S-D-L-S-I-Q-K(γE-x53)-E-K-R-A-A-Aib-E-F-I-E-W-L-K-N-T-G-P-S-S-G-A-P-P-P-S-NH2] (H-Y[Aib]EGTFTSDLSIQK([γGlu-Palmitoyl])EKRAA[Aib]EFIEWLKNTGPSSGAPPPS-NH2)
HbA1c level versus db/db control mice at the end of the study ([1]; 10, 30 and 100 μg/kg s.c. once daily, 4 weeks, all three doses): lower HbA1c level
blood glucose level versus db control mice at the end of the study ([1]; 10, 30 or 100 μg/kg s.c. once daily, 4 weeks): significant lower blood glucose level
blood glucose after 4 weeks of treatment ([1]; 10, 30 or 100 μg/kg s.c. once daily, 4 weeks, compared with liraglutide): strong and dose-dependent decrease in blood glucose, superior to liraglutide in the medium and highest dose
blood glucose compared to db/db control mice, 24 h profile ([1]; single 100 μg/kg s.c., fed db/db mice): significant decrease in blood glucose
decrease of body weight, relative change from baseline ([2]; 10 μg/kg s.c. once daily): 13.3-16.4%
Bodyfat change ([2]; 10 μg/kg): -4.2 ± 0.4 g
Overall weight change ([2]; 10 μg/kg): -5.0 ± 0.5 g
decrease of body weight, relative change from baseline ([2]; 30 μg/kg s.c. once daily): 17.6-20.9%
Bodyfat change ([2]; 30 μg/kg): -6.1 ± 0.4 g
Overall weight change ([2]; 30 μg/kg): -6.9 ± 0.5 g
decrease of body weight, relative change from baseline ([2]; 100 μg/kg s.c. once daily): 21.7-22.7%
Bodyfat change ([2]; 100 μg/kg): -6.4 ± 0.5 g
Overall weight change ([2]; 100 μg/kg): -7.3 ± 0.6 g
basal blood glucose levels compared to DIO control mice ([2]; day 6 of treatment, 10, 30 and 100 μg/kg s.c. daily): dose-dependently decreased
